Laboratory results from US20240034785A1, “RXR-ALPHA BINDERS AND RXR-ALPHA/PLK1 MODULATORS” (NUCMITO PHARMACEUTICALS CO. LTD., priority 2020, published 2024).

Assays:
[1] = tested on: primary human hepatocellular carcinoma cells; test: Western blot analysis of primary hepatic carcinoma cells from a liver cancer patient; type: cell-based; details: 10 μM for 48 hr (FIG. 63)
Experimental: Tissue samples were obtained by surgical resection and processed within 2 hr. Chen et al., Oncotarget 2016, 7, 17047-59. Samples were washed with 1×SC-2 solution, minced with fine sterile scissors and scalpel into fragments of ˜1 mm^3. They were then treated with pre-warmed collagenase type IV for 30 min at 37° C. and filtered through a 70 μm cell strainer. The pellet containing the liver cells was resuspended in ice cold SC-2 solution and triple centrifugation at 1,000 g for 10 min at 4° C. was performed in order to separate the purified hepatocyte population (pellet) from non-parenchymal cells (supernatant). The pellet contained the purified hepatocytes. The resolved single-cell suspensions were then re-suspended in a primary cell culture medium (DMEM, 20% FBS, 2 mM glutamine, 1 mM pyruvate, 10 mM HEPES, 100 units/mL penicillin/streptomycin, 0.1 mg/mL gentamicin, and […] fungizone), plated in 6-well plates coated with 5 μg/cm^2 rat tail collagen type I and maintained in culture at 37° C. and 5% CO2.

[2] = biological target: T1, m-RXRα (p-RXRα) interaction with PLK1 (Homo sapiens, UniProt P19793); test: Co-immunoprecipitation of Myc-RXRα with FLAG-PLK1 in HeLa cells; details: 10 μM for 3 hr (FIG. 55)
T1 sequence (P19793 1-462): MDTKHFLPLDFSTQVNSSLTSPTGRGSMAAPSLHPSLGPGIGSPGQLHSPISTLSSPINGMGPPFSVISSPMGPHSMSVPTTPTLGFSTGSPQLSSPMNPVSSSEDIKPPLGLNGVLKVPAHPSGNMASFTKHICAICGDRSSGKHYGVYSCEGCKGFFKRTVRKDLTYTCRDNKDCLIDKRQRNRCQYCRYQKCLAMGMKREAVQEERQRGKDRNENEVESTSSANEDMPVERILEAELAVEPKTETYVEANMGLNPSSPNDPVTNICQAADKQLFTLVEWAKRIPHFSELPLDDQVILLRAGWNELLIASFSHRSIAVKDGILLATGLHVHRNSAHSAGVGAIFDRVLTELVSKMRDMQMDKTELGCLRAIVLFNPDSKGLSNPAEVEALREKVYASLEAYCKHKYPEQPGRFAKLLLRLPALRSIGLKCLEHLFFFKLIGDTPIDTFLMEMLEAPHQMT
Experimental: Briefly, cells were harvested in a lysis buffer (10 mM Tris, pH 7.4, 150 mM NaCl, 0.5% NP40, 5 mM ethylene diamine tetraacetic acid, containing protease inhibitors). Cell lysates were incubated with an antibody (1 μg) at 4° C. for 2 hr. Immunocomplexes were then precipitated with 30 μL of protein G-Sepharose beads. After an extensive washing with the lysis buffer, the beads were boiled in a sodium dodecyl sulfate (SDS) sample loading buffer and assessed by western blotting.
Cell lysates were boiled in an SDS sample loading buffer, resolved by 10% SDS-polyacrylamide gel electrophoresis (SDS-PAGE), and transferred to PVDF membranes. The membranes were blocked with 5% milk in a Tris buffered saline and TWEEN 20 (TBST)(10 mM Tris-HCl, pH 8.0, 150 mM NaCl, 0.05% TWEEN 20) for 1 hr at room temperature. After washing twice with TBST, the membranes were incubated with primary antibodies in TBST for 1 hr and then washed twice, probed with a horseradish peroxide-linked anti-immunoglobulin (1:5,000 dilution) for 1 hr at room temperature. After three washes with TBST, immunoreactive products were visualized using enhanced chemiluminescence reagents and autoradiography.

[3] = tested on: HeLa cells; test: Asynchronous or thymidine-synchronized HeLa cells incubated with compound A1; type: cell-based, human
Experimental: Cells were synchronized at GUS boundary by a double thymidine block. Briefly, cells cultured in a medium containing 2 mM thymidine for 16 hr were released into a normal medium for 8 hr, subjected to a second thymidine block for 16 hr, and then released into a fresh medium again. Alternatively, cells were synchronized at prometaphase by a thymidine-nocodazole arrest (an 18-hr thymidine arrest and a 5-hr release, followed by a 5-hr 100 ng/mL nocodazole arrest).

[4] = tested on: QSG-7701 cells; test: Western blot analysis of QSG-7701 normal liver cells; type: cell-based, human; details: 12 hr (FIG. 61)
[5] = biological target: T2, p-RXRα and PLK1 at the centrosome (Homo sapiens, UniProt P19793); test: In situ proximity ligation assay (PLA) in HepG2 cells; type: cell-based; details: RO-3306 10 μM for 30 min or compound A1 10 μM for 2 hr (FIG. 56)
T2 construct: endogenous in cells; host or cells: HepG2
T2 sequence (P19793 1-462): T1 sequence (P19793 1-462)
Experimental: An in situ proximity ligation assay (PLA) was performed in HeLa cells and HepG2 by using a DOULINK™ assay kit. Briefly, cells mounted on glass slides were fixed with methanol at −20° C. for 5 min, then permeabilized with 0.05% Triton X-100 in a PBS buffer for 8 min at 4° C., and blocked with a blocking solution for 60 min at 37° C., followed by incubation with primary antibodies for 60 min at 37° C. The slides were then washed three times with wash buffer A, and PLA labeled secondary antibodies (anti-mouse, minus; anti-rabbit, plus) were added and incubated for 60 min at 37° C. The slides were washed two times with wash buffer A and a ligation solution including a ligase was added for 30 min at 37° C. After ligation, the slides were washed two times with wash buffer A and followed by incubation with an amplification buffer including a polymerase for 100 min at 37° C. After amplification, the slides were washed two times with 1×wash buffer B and one time in 0.01×wash buffer B. Finally, the slides were mounted using a minimal volume of a mounting medium with DAPI and analyzed in a confocal microscope after 15 min.

[6] = tested on: primary mouse liver tumor cells; test: Western blot analysis of primary mouse liver tumor cells; type: cell-based; details: 10 μM for 24 hr (FIG. 65)
Experimental: Briefly, a liver from a mouse was removed and washed in 1×PBS. The tumor tissue was resected from the liver and transferred to 5 mL PBS/2% FBS. The tumor tissue was minced with fine sterile scissors into fragments, followed by addition of 5 mL pre-warmed 2 mg/mL collagenase type IV/dispase. After incubated for 30 min at 37° C., the tumor cells were filtered through a 70 μm cell strainer and spined at 1,000 rpm for 5 min at 4° C. The pellet containing the liver tumor cells was then resuspended in 5 mL of 1×RBC lysis buffer and incubated on ice for 5 min. The tumor cells were spined and washed by 1×PBS/2% FBS for 2-3 times. Finally, the tumor cells were resuspended with DMEM (10% FBS, 40 ng/mL EGF, 0.008 ng/mL IGF-II) and plated in culture dishes that were pre-coated with collagen.

[7] = tested on: HepG2 cells; test: Western blot analysis of liver cancer HepG2 cells; type: cell-based, human; details: indicated concentration for 12 hr (FIG. 61)
[8] = biological target: T3, RXRα heterodimerization with RARγ (Homo sapiens, UniProt P19793); test: Co-immunoprecipitation of Myc-RXRα with FLAG-RARγ in HeLa cells; type: cell-based; details: 10 μM for 3 hr (FIG. 55)
T3 construct: expressed in transfected cells; host or cells: HeLa
T3 sequence (P19793 1-462): T1 sequence (P19793 1-462)
T3 sequence (P13631 1-454 partner): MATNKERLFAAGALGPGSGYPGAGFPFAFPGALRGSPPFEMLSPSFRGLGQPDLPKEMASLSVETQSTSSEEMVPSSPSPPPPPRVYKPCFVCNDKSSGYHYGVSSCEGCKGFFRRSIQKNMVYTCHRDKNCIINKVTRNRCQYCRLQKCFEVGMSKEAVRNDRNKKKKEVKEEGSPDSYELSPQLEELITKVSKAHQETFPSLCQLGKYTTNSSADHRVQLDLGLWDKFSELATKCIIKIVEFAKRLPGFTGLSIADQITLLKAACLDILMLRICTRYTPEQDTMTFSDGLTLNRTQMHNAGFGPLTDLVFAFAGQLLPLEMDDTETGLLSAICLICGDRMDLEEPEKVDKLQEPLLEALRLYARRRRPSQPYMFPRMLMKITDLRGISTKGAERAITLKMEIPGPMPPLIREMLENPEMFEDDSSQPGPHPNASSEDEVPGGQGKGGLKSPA

COc1ccc(CC(=O)N/N=C/c2c(O)ccc3ccccc23)cc1 [Compound A1, (E)-N′-((2-hydroxynaphthalen-1-yl)methylene)-2-(4-methoxyphenyl)acetohydrazide]
induction of mitotic arrest and apoptosis [1]: observed | p-RXRα interaction with PLK1 (CoIP) [2]: inhibited | effectiveness in asynchronous versus synchronized cells ([3]; HeLa cells, 10 μM for 24 hr (FIG. 64)): more effective in asynchronous cells (AS) than in synchronized GUS cells | cell cycle progression and fate of synchronized HeLa cells upon treatment ([3]; synchronized HeLa cells): progressed through S phase normally and arrested in mitotic phase, which was followed by apoptosis | effect in p-RXRα-negative noncancerous QSG-7701 cells [4]: but not p-RXRα-negative noncancerous QSG-7701 cells | in situ interaction between p-RXRα and PLK1 at the centrosome (PLA) [5]: inhibited the in situ interaction | G2/M arrest, DNA damage response, and apoptosis ([6]; primary liver cancer cells): induced G2/M arrest, DNA damage response, and apoptosis | induction of mitotic arrest and apoptosis ([6]; primary mouse liver tumor cells): observed | effect in p-RXRα-positive HepG2 liver cancer cells [7]: potent effect | RXRα heterodimerization with RARγ (CoIP) [8]: no effect
